Laboratory results taken from patent publication US20040138826A1, “Experimental design and data analytical methods for detecting and characterizing interactions and interaction thresholds on fixed ratio rays of polychemical mixtures and subsets thereof” (priority 2002, published 2004).
“And” between values parts separate entries of the source, which are not always exact repeats. Identical values can stand only once. “Also recorded” adds a separate entry of the source. Like-named read-outs stand apart in the source and are kept apart here.

Tests used:
[1] = tested on: healthy adult rats; conditions: for Threshold Estimate: dose threshold for motor activity, threshold additivity model, SAR analysis; for Threshold Estimate / Mean Motor Activity Response: rats; for Mean Motor Activity Response: single chemical
Description: To motivate the use of these fixed-ratio mixture ray designs consider a study which examines exposure to environmentally relevant pesticides. The OP pesticides chosen for study, based on usage patterns (i.e. pesticides used on same or similar crops) and market share (i.e. highest volume pesticides), were acephate, diazinon, chlorpyrifos, dimethoate, and malathion. Motor activity, a count of the number of passes made across a central area, was used to assess toxicity in healthy adult rats. A full five-pesticide fixed-ratio ray, given by (0.040:0.002:0.031:0.102:0.825) for (acephate:diazinon:chlorpyrifos:dimethoate:malathion), was chosen based on relative dietary exposure estimates of each chemical as projected by the U.S. EPA Dietary Exposure Evaluation Model (DEEM).
Single chemical data were collected approximately 18 months prior to the data along the full fixed-ration ray.
Fixed-ratio ray designs were chosen to study interactions among combinations of multiple pesticides. The pesticides chosen for these studies, based on usage patterns (i.e., pesticides used on the same or similar crops) and market share (i.e., highest volume pesticides), were acephate, diazinon, chlorpyrifos, dimethoate, and malathion. Motor activity, a count of the number of passes made across a central area, was chosen to assess the toxicity of these pesticides in healthy adult rats. The fixed-ratio ray under study was chosen based on the relative dietary exposure estimates of each chemical as projected by the U.S. EPA Dietary Exposure Evaluation Model (DEEM) and is given by (0.040:0.002:0.031:0.102:0.825) for acephate, diazinon, chlorpyrifos, dimethoate, and malathion respectively.
The five-pesticide study described in the introduction is used to illustrate the sample size and power methods developed in Section 3. Due to the high potential of aggregate exposure to OP pesticides, researchers were initially interested in testing the hypothesis of additivity, given in (5), along the full five-pesticide fixed-ratio ray, given by (0.040:0.002:0.031:0.102:0.825) for ([…]), that represents relative dietary exposure estimates. Single chemical data were collected and used to estimate an additivity model along the ray (analysis not shown). Since, the motor activity response is a count variable it was assumed that V(m)=m and the log link function (McCullagh and Nelder, 1989) was used to fit the generalized linear additivity model described in Section 2. […] Eighty-six animals were considered. Fourteen animals were evaluated in the control group. Twelve animals each were evaluated at 10, 55, 100, 200, 300, and 450 mg/kg. Summary statistics for the single chemical and mixture data are provided in the appendix.
The five-pesticide study described in the introduction is used to illustrate the design methodology developed in the following sections. Due to the high potential for aggregate exposure to OP pesticides, researchers were initially interested in testing the hypothesis of additivity, given in (4), along the full five-pesticide fixed-ratio ray, given by (0.040:0.002:0.031:0.102:0.825) for (acephate:diazinon:chlorpyrifos:dimethoate:malathion). Since motor activity response is a count variable, it was assumed that V(μ)=μ and the log link function (McCullagh and Nelder, 1989) was used to fit the generalized linear additivity model given in (1). […] Eighty-six animals were considered. Fourteen animals were evaluated in the control group. Twelve animals each were evaluated at 10, 55, 100, 200, 300, and 450 mg/kg.

[2] = tested on: rats; conditions: for effect when given alone on gait abnormality: single chemical data, rats
Description: The endpoint of interest is neurotoxicity in rats as measured by a gait score dichotomized to indicate presence or absence of a gait abnormality (i.e., incoordination, loss of balance, etc.). The fixed-ratio ray under study was chosen based on the relative dietary exposure estimates of each chemical as projected by the U.S. EPA Dietary Exposure Evaluation Model (DEEM) and is given by (0.040:0.002:0.031:0.825:0.102) for ACE, DIA, CPF, MAL, DIM, respectively. […] (Note: Such a strategy can be extended for identifying the impact of the unidentified fraction in a complex mixture.)
The biological endpoint of interest is an indicator of neurotoxicity based on evidence of the presence or absence of a gait abnormality (Moser, 1995). In order to appropriately constrain the probability of a response to be between 0 and 1, a logit link function was used, i.e., g(μ)=log(μ/(1−μ)). It was assumed throughout that the variance changes as a binomial random variable such that Var(Y)=τμ(1−μ) (e.g., McCullagh and Nelder, 1989).
The resulting mixture experiment consisted of a vehicle control (n=14), ‘positive controls’ for ACE alone (6 and 30 mg/kg; n=6, 14, respectively), CPF alone (10, 20, 30 mg/kg; n=6, 8, 6, respectively), DIAZ alone (50 and 125 mg/kg; n=6, 14, respectively), MAL alone (350 mg/kg; n=14), DIM alone (10, 25, 50 mg/kg; n=6, 8, 6, respectively), and six total dose mixture concentrations (10, 55, 100, 200, 300 and 450 mg/kg; n=12 rats per dose group for a total of 72 rats exposed to a mixture of the chemicals) at a fixed mixing ratio ray of (0.040:0.002:0.031:0.825:0.102) for (ACE:DIA:CPF:MAL:DIM). Similarly, the design for a second fixed-ratio ray was based on a reduced number of the pesticides (omitting MAL) with the remaining pesticides at the same relative proportions as in the ‘full’ mixture study. The experiment consisted of a vehicle control (n=8), positive controls (n=8 per group) for ACE (30 mg/kg), CPF (20 mg/kg), DIA (125 mg/kg), and DIM (25 mg/kg), and six total dose mixture concentrations (1.75, 9.6, 17.5, 35, 52.5, and 78.8 mg/kg; n=12 rats per dose group) at a fixed mixing ratio ray of (0.229:0.011:0.177:0.583) for (ACE:DIA:CPF:DIM). Casey et al (2003a,b) describe the motor activity data in the mixture of these five pesticides.

Row | SMILES | Threshold Estimate [1] [mg/kg] | Mean Motor Activity Response ([1]; dose 1 mg/kg) | Mean Motor Activity Response ([1]; dose 2 mg/kg) | Mean Motor Activity Response ([1]; dose 5 mg/kg) | Mean Motor Activity Response ([1]; dose 10 mg/kg) | Mean Motor Activity Response ([1]; dose 20 mg/kg) | Mean Motor Activity Response ([1]; dose 25 mg/kg) | Mean Motor Activity Response ([1]; dose 30 mg/kg) | Mean Motor Activity Response ([1]; dose 50 mg/kg) | effect when given alone on gait abnormality [2] | Mean Motor Activity Response ([1]; dose 75 mg/kg) | Mean Motor Activity Response ([1]; dose 125 mg/kg) | Mean Motor Activity Response ([1]; dose 150 mg/kg) | Mean Motor Activity Response ([1]; dose 250 mg/kg) | effect of malathion on the mixture, motor activity ([1]; SAR method, full vs reduced ray, p-value 0.068) | Mean Motor Activity Response ([1]; dose 100 mg/kg) | Mean Motor Activity Response ([1]; dose 500 mg/kg) | effect of MAL on the mixture, gait abnormality ([2]; adjusted comparison of full and reduced rays, listed as MAL) | effect when given alone on gait abnormality ([2]; listed as MAL)
1 | CCOP(=S)(OCC)Oc1nc(Cl)c(Cl)cc1Cl [Chlorpyrifos, chlorpyrifos] | 4.69 | 213.13 | 192.75 | 213.37 | 178.31 and 172.13 | 157.13 | 162.00 | 80.13 | 49.44 and 56.38 | significant effect on a gait abnormality | – | – | – | – | – | – | – | – | –
2 | CCOP(=S)(OCC)Oc1cc(C)nc(C(C)C)n1 [Diazinon, diazinon] | 25.0 | – | – | 190.88 | – | – | 215.56 | – | 183.13 | significant effect on a gait abnormality | 165.69 | 152.00 | 76.5 | 61.25 | – | – | – | – | –
3 | CNC(=O)CSP(=S)(OC)OC [Dimethoate, dimethoate] | 8.72 | – | – | 188.25 | 188.63 | – | 107.75 | – | 103.75 | significant effect on a gait abnormality | 101.50 | – | – | – | – | – | – | – | –
4 | CCOC(=O)CC(SP(=S)(OC)OC)C(=O)OCC (stereo not shown) [Malathion, malathion] | – | – | – | – | – | – | – | – | – | – | – | – | – | – | marginal evidence that malathion has an effect on the mixture | 201.5 | 203.75 | significantly (p=0.016) changes the shape of the dose response curve in the full ray; also recorded: interacts with at least some or all of the other four pesticides; also recorded: interacts with the other pesticides | not dose responsive
